In PubChem BioAssay AID256 (DTP/NCI, 2004):
Toxic doses and inconclusive results are not listed. The calls were made as follows: active = survival T/C of 150% or more; inactive = T/C below 125% in these data.

Test system: CD2F1 mice, L1210 leukemia ip, survival T/C
Assay: NCI In Vivo Anticancer Drug Screen. Data for tumor model L1210 Leukemia (intraperitoneal) in CD2F1 (CDF1) mice
Details: endpoint: mean survival time, higher = longer survival
Procedure, shortened: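 Activity against a transplanted murine tumor was judged by comparing the compound group with a vehicle group. The outcome in the treated animals was divided by that in the controls.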

[1] = dose: 100.0 mg/kg/injection, schedule: Q04DX002 (ip), vehicle: saline with Tween-80
[2] = dose: 100.0 mg/kg/injection, schedule: Q04DX003 (ip), vehicle: saline with Tween-80
[3] = dose: 200.0 mg/kg/injection, schedule: Q04DX003 (ip), vehicle: saline with Tween-80
[4] = dose: 400.0 mg/kg/injection, schedule: Q04DX003 (ip), vehicle: saline with Tween-80
[5] = dose: 50.0 mg/kg/injection, schedule: Q01DX009 (ip), vehicle: saline with Tween-80
[6] = dose: 100.0 mg/kg/injection, schedule: Q01DX009 (ip), vehicle: saline with Tween-80
[7] = dose: 200.0 mg/kg/injection, schedule: Q01DX009 (ip), vehicle: saline with Tween-80
[8] = dose: 400.0 mg/kg/injection, schedule: Q01DX009 (ip), vehicle: saline with Tween-80
[9] = dose: 400.0 mg/kg/injection, schedule: Q01DX001 (ip), vehicle: saline with Tween-80
[10] = dose: 100.0 mg/kg/injection, schedule: Q01DX001 (ip), vehicle: saline with Tween-80

Measured: T/C

O=CC(O)C(O)C(O)C(O)C(O)CO (centres undefined)
inactive: dose: 100.0 mg/kg/injection, schedule: Q01DX001 (ip), vehicle: saline 94 % of control | dose: 200.0 mg/kg/injection, schedule: Q01DX001 (ip), vehicle: saline 103 % of control | dose: 400.0 mg/kg/injection, schedule: Q01DX001 (ip), vehicle: saline 97 % of control

CC1(C)N=C(N)N=C(N)N1c1cccc([N+](=O)[O-])c1
inactive: [1] 96 % of control

CC(C)(C)OC(=O)NC(=O)CCC(N)C(=O)O (centres undefined)
inactive: [2] 94 % of control | [3] 91 % of control | [4] 92 % of control

CCCCC(CCCC)(C(=O)NC)c1ccccc1
inactive: [2] 95 % of control | [3] 97 % of control | [4] 90 % of control

O=C1CC2CCC1C2Cl (centres undefined)
inactive: dose: 6.25 mg/kg/injection, schedule: Q04DX003 (ip), vehicle: saline with Tween-80 101 % of control | dose: 12.5 mg/kg/injection, schedule: Q04DX003 (ip), vehicle: saline with Tween-80 113 % of control | dose: 25.0 mg/kg/injection, schedule: Q04DX003 (ip), vehicle: saline with Tween-80 97 % of control | dose: 50.0 mg/kg/injection, schedule: Q04DX003 (ip), vehicle: saline with Tween-80 97 % of control

Nc1ccc(Nc2ccccc2C(=O)O)cc1
inactive: [5] 95 % of control | [6] 103 % of control | [2] 105 % of control | [3] 97 % of control

O=CC(O)C(O)C(OC1OC(CO)C(OC2OC(CO)C(O)C(O)C2O)C(O)C1O)C(O)CO (centres undefined)
inactive: [6] 98 % of control | [7] 95 % of control | [8] 95 % of control

Cc1cc(C)c(O)c(C)c1C
inactive: dose: 31.25 mg/kg/injection, schedule: Q01DX009 (ip), vehicle: saline 100 % of control | dose: 62.5 mg/kg/injection, schedule: Q01DX009 (ip), vehicle: saline 91 % of control | dose: 125.0 mg/kg/injection, schedule: Q01DX009 (ip), vehicle: saline 95 % of control | dose: 250.0 mg/kg/injection, schedule: Q01DX009 (ip), vehicle: saline 93 % of control

CN(C)N=C1CCC2(CC1)c1ccccc1-c1ccccc12
inactive: dose: 200.0 mg/kg/injection, schedule: Q01DX001 (ip), vehicle: saline with Tween-80 88 % of control | [9] 87 % of control

Cc1nc2ccccc2n1C
inactive: dose: 25.0 mg/kg/injection, schedule: Q01DX009 (ip), vehicle: saline with Tween-80 105 % of control | [5] 96 % of control | [6] 104 % of control

COc1cc(C2=NCCO2)cc(OC)c1OC
inactive: [2] 103 % of control | [3] 93 % of control | [4] 93 % of control

Clc1ccc2c(CBr)ccnc2c1
inactive: dose: 50.0 mg/kg/injection, schedule: Q04DX003 (ip), vehicle: other 110 % of control | dose: 100.0 mg/kg/injection, schedule: Q04DX003 (ip), vehicle: other 112 % of control

CCCCC(CC)COP(OCC(CC)CCCC)OCC(CC)CCCC (centres undefined)
inactive: [6] 92 % of control | [7] 87 % of control

NNC(=O)c1ccc(C(=O)NN)cc1
inactive: dose: 100.0 mg/kg/injection, schedule: Q01DX001 (ip), vehicle: Klucel (hydroxypropylcellulose) (HPC) 91 % of control | [6] 97 % of control | [2] 94 % of control | dose: 200.0 mg/kg/injection, schedule: Q01DX001 (ip), vehicle: Klucel (hydroxypropylcellulose) (HPC) 100 % of control | [7] 107 % of control | [3] 96 % of control | dose: 400.0 mg/kg/injection, schedule: Q01DX001 (ip), vehicle: Klucel (hydroxypropylcellulose) (HPC) 88 % of control | [8] 104 % of control | [4] 96 % of control

COc1cc(-c2ccncc2)nc(OC)n1
inactive: [1] 96 % of control | dose: 200.0 mg/kg/injection, schedule: Q04DX002 (ip), vehicle: saline with Tween-80 88 % of control

CNC(=O)c1ccccc1C(c1ccccc1)C1(O)CCCCC1 (centres undefined)
inactive: [2] 101 % of control | [3] 88 % of control | [4] 93 % of control

c1cc(-c2ncc[nH]2)ccn1
inactive: dose: 25.0 mg/kg/injection, schedule: Q01DX001 (ip), vehicle: saline with Tween-80 112 % of control | dose: 50.0 mg/kg/injection, schedule: Q01DX001 (ip), vehicle: saline with Tween-80 96 % of control | [10] 104 % of control

COc1ccc(NC(C)=O)c(O)c1C
inactive: [10] 95 % of control | [9] 90 % of control

CC1=NCCCN=C(C)C(C)=NCCCN=C1C.[Ni+2].[O-][Cl+3]([O-])([O-])O
inactive: dose: 25.0 mg/kg/injection, schedule: Q04DX003 (ip), vehicle: saline 91 % of control | dose: 50.0 mg/kg/injection, schedule: Q04DX002 (ip), vehicle: saline with Tween-80 96 % of control | dose: 50.0 mg/kg/injection, schedule: Q04DX003 (ip), vehicle: saline 94 % of control
